Experimental findings from patent publication US8057829B2, “Methods for repelling insects using sesquiterpene hydrocarbons and their derivatives” (Sterling International Inc., priority 2008, dated 2011) are described below.

One assay relates to houseflies. The assay is described as follows: Laboratory sticky trap bioassay of spatial repellency with egg powder attractant. Format: in vivo, housefly (Musca domestica). The protocol: Laboratory bioassay tests were carried out to investigate the efficacy of some of the EAD-active compounds described above to act as spatial repellents against several insects. The procedure for the bioassay tests is described in Example 2 below. Briefly stated, the bioassay included using egg powder (EP) as an attractant for flies, while the compound whose insect repellency was being tested was placed in proximity to the egg powder. In FIGS. 11-13, the bioassay was carried out on houseflies using devices known by the designation Trécé Pherocon® VI sticky traps.
The following lab bioassay tests were employed to illustrate the efficacy of the compounds to effectively act as spatial repellents for flies. Three sets of tests were conducted in a fly testing room (23° C., 70% RH, and 12/12 (L/D) light regime illuminated by fluorescent lights). Two sets of tests were carried out using Trécé Pherocon® VI traps with sticky inserts, which were set up on poles evenly spaced on a rotating table. The traps were ca. 1 m above a table surface, and ca. 1 m apart from each other. Two grams of egg powder in a white cap (4 cm in diameter, 0.5 cm in height) used as an attractant was put on the center of the sticky insert in the sticky trap. The potential repellent candidate chemicals were loaded into polyethylene bags, and were hung under the inner roof of the traps, 1-1.5 cm above the egg powder attractant. A control had the empty white cap and blank polyethylene bag, while the positive control had only the egg powder and an empty polyethylene bag. The test table was rotated 1.5 r.p.h. […] About 200-300 houseflies (2-3 days old) were released into the testing room for each test. Tests were normally run from 8:00 am to 5:00 pm, and the numbers of houseflies caught in each trap were counted after each test. The results of these tests are shown in FIGS. 11-13 and described above.

For assay [1], the system named is female antennae of sand fly Phlebotomus papatasi and mosquitoes Aedes aegypti, Anopheles gambiae, Anopheles stephensi. Briefly: GC-EAD responses of sand fly and three mosquitoes to synthetic mixtures. Conditions: about 100 ng of each compound, on one or more of the sand fly or the mosquitoes, FIGS. 9 and 10. The protocol: The GC-EAD responses of female antennae of the sand fly, Phlebotomus papatasi, and three species of mosquitoes, Aedes aegypti, Anopheles gambiae, and anopheles stephensi were tested on a synthetic mixture of 1-octen-3-ol, six sesquiterpene hydrocarbons including (+)-longipinene, (−)-isolongifolene, (+)-longifolene, β-caryophyllene, isolongifolenone, and α-humulene, and several known insect repellents including ZE-nepetalactone, EZ-nepetalactone, with about 100 ng of each compound in the mixture.
The GC-EAD responses of female antennae of the sand fly, Phlebotomus papatasi, and three species mosquitoes, Aedes aegypti, Anopheles gambiae, and anopheles stephensi were tested on a synthetic mixture of 1-octen-3-ol, linalool, β-caryophyllene oxide, isocaryophyllene, β-caryophyllene, and α-humulene, and DEET, with about 100 ng of each compound in the mixture.
(§1) The following procedures were employed to test the EAD response of an insect antenna to a repellent compound. The GC-EAD technique provides an efficient tool for screening behaviorally active repellents. Several synthetic mixtures of potential insect repellent candidates, mostly sesquiterpene hydrocarbons and derivatives, were analyzed in splitless mode using a Varian CP-3800 GC equipped with a polar column (Innowax; 1.0 μm film thickness, 30 m×0.53 mm ID; J & W Scientific), and a 1:1 effluent splitter that allowed simultaneous flame ionization detection (FID) and EAD of the separated volatile compounds. Helium was used as the carrier gas, and the injector temperature was 220° C. The column temperature was 50° C. for 2 min, rising to 240° C. at 10° C./min, then held for 10 min. The outlet for the EAD was held in a humidified air stream flowing at 0.5 liter/min. over an antennal preparation. A glass capillary indifferent electrode filled with Beadle-Ephrussi Ringer, and grounded via a silver wire, was inserted into the severed insect's head with the antennae. A similar recording electrode connected to a high-impedance DC amplifier with automatic baseline drift compensation was placed in contact with the distal end of one antenna (Zhang et al., Chemoecology, 10:69-80 (2000)). The antennal signals were stored and analyzed on a PC equipped with a serial IDAC interface box and the program EAD ver. 2.5 (Syntech, Hilversum, The Netherlands). The compound 1-octen-3-ol (known attractant for many flies and mosquitoes) was included in most of the synthetic mixtures, as a positive control. The results of the experiments are shown in FIGS. 1-10 and described above.

The test system of assay [2] is antennae of Musca domestica, Lucillia sericata, Sarcophaga sp., Muscina stabulans, Culex pipiens, Aedes increpitus. The assay is described as follows: GC-EAD responses of several flies and two mosquitoes to a synthetic mixture. Conditions: about 100 ng of each compound, FIG. 6. The protocol: The GC-EAD responses of several species of flies and two species of mosquito antennae were tested on a synthetic mixture of 1-octen-3-ol, linalool, two representative sesquiterpene hydrocarbons, β-caryophyllene and α-humulene, ZE-nepetalactone, EZ-nepetalactone, and two known insect repellents, DEET, and SS220, with about 100 ng of each compound in the mixture. DEET and SS220 are used as positive controls in the experiment. The compound 1-octen-3-ol is a known attractant for the insects and is also used as a positive control. The insects tested are species of Musca domestica, Lucillia sericata, Sarcophaga sp., Muscina stabulans, Culex pipiens, and Aedes increpitus.
as §1, with “2.5 (Syntech, Hilversum, The Netherlands). The compound 1-octen-3-ol (known attractant for many flies and mosquitoes) was included in most of the synthetic mixtures, as a positive control. The results of the experiments are shown in FIGS. 1-10 and described above.” left out

In assay [3] the test system is male false stable fly Muscina stabulans antenna and female mosquito Aedes (Ochlerotatus) increpitus Dyar antenna. The assay is described as follows: GC-EAD responses of false stable fly and Aedes increpitus to a synthetic mixture. Conditions: about 100 ng of each compound, FIG. 5. The protocol: The GC-EAD responses of the male false stable fly Muscina stabulans antenna and the female mosquito Aedes (Ochlerotatus) increpitus Dyar antenna were tested on a synthetic mixture of linalool and two representative sesquiterpene hydrocarbons, β-caryophyllene and α-humulene, and one sesquiterpene oxide, β-caryophyllene oxide, with about 100 ng of each compound in the mixture.
as §1

Assay [4] concerns housefly (Musca domestica) antenna. Briefly: GC-EAD antennal response, housefly. Conditions: female housefly antenna; synthetic mixture, about 100 ng of each compound; FIG. 3.
Description: The sesquiterpene hydrocarbons and their derivatives disclosed herein have been identified as suitable insect repellents by testing via a gas chromatographic-electroantennographic detection (GC-EAD) method as described in Example 1 below. This method can be used to efficiently screen for potentially behaviorally active compounds, including insect repellents, attractants, deterrents, or attraction-inhibitors from complex natural sources or synthetic mixtures.
The GC-EAD responses of the female housefly antenna were tested on a synthetic mixture of 1-octen-3-ol, a known attractant used as a positive control, and representative sesquiterpene hydrocarbons and derivatives, (+)-longipinene, (−)-isolongifolene, (+)-longifolene, β-caryophyllene, α-humulene, and isolongifolenone, with about 100 ng of each compound in the mixture.
The GC-EAD responses of the male housefly antenna were tested on a synthetic mixture of 1-octen-3-ol, and two representative sesquiterpenes, β-caryophyllene and isocaryophyllene, with about 100 ng of each compound in the mixture.
as §1

The subject of assay [5] is antennae of housefly, sand fly, and mosquitoes Aedes aegypti, Anopheles gambiae, Anopheles stephensi. Briefly: GC-EAD antennal responses to SPME samples of clove essential oil. Conditions: component of clove essential oil SPME sample; response by one or more of the insects; FIG. 1. Here is the method:
The GC-EAD antennal response of a female housefly (Musca domestica), sand fly (Phlebotomus papatasi), and mosquitoes including the species Aedes aegypti, Anopheles gambiae, and Anopheles stephensi were tested with clove essential oil. FIG. 1 is a simultaneous recording of GC flame ionization detection (FID) and electroantennographic detection (EAD) of the insect antennae to solid phase microextraction (SPME: CAR/PDMS) samples of clove essential oil in a 20 ml glass vial for 20 sec.
as §1, with “The results of the experiments are shown in FIGS. 1-10 and described above.” left out

For the molecule `C=CC(C)(O)CCC=C(C)C` (stereo not shown) [linalool, 3,7-dimethyl-3-hydroxy-1,6-octadiene], the “number of house flies per trap” value in the assay on houseflies (egg powder attractant plus repellent, FIG. 11, egg powder alone 44) was 5.5 house flies per trap. For the same molecule, the “repellency against houseflies, in words” value with houseflies (laboratory trap bioassay with egg powder attractant) is on record as “effective housefly repellents”. In addition, the GC-EAD antennal activity result is “antennally active” in assay [1], “active on at least one of the insects tested” in assay [2] and “active on at least one of the insects tested” in assay [3].
In the case of `C/C1=C\CC/C(C)=C/CC(C)(C)/C=C/C1` [α-humulene], the GC-EAD antennal activity entry in assay [1] is recorded as “antennally active”; in assay [2], “active on at least one of the insects tested”; in assay [4] it was “active”; in assay [5], “EAD-active”; in assay [3], “active on at least one of the insects tested”.
